Measured values taken from US20250034136A1 (Nimbus Wadjet, Inc., priority 2023, published 2025).
Where two headings read alike, the source gives them in different places.

What was measured:
[1] = biological target: WRN (BV08), human Werner helicase (Uniprot Q14191, amino acids 517-1235 with L1074F point mutation) (Homo sapiens (Human), UniProt Q14191, L1074F); assay: WRN (BV08) ADP-Glo assay; assay type: biochemical; settings: class symbols A-E, read-out: ADP-Glo_hWRN_IC50
[2] = test system: p21 induction in HCT116 cells; assay: p21 induction in HCT116 cells; assay type: cell-based; settings: Homo sapiens, HCT-116, 24 h, read-out: P21_EC50
Method in brief: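 HCT116 cells, 2,000/well, treated 24 h at 37 °C with 11-point compound dilutions in duplicate. Fixed, then immunostained for p21 and GAPDH and read by near-IR imaging at 800/700 nm. Normalized to DMSO (low) and reference WRN inhibitor (high) controls; EC50 from non-linear regression.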

[3] = HCT116 cells, 24 h compound incubation

Chain of WRN (BV08), human Werner helicase (Uniprot Q14191, amino acids 517-1235 with L1074F point mutation) (Q14191 other isoform, or with tags, fused parts or gaps L1074F (already in the parent)): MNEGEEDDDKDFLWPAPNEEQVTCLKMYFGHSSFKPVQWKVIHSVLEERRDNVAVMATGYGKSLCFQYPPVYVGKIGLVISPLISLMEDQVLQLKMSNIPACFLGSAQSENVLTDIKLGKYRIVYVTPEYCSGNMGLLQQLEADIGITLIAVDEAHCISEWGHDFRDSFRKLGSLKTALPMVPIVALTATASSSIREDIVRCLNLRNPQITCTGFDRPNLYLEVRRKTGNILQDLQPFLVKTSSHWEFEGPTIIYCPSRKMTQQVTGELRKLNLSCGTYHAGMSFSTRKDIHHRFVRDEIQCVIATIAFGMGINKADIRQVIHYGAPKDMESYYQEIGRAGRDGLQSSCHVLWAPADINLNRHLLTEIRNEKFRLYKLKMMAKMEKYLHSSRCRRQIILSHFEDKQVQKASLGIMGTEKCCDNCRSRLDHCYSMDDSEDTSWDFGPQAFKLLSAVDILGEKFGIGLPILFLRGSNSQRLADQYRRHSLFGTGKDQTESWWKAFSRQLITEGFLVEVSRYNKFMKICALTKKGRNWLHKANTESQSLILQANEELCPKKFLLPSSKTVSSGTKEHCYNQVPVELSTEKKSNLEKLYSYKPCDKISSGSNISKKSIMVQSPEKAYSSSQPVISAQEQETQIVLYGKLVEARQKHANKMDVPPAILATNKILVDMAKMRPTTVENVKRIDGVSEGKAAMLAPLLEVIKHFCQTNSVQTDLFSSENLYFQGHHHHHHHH

Row | Compound | IC50 [1] | EC50 [2, 3] | EC50 [2]
1 | CCc1c(N2CCN(C(=O)c3ncnc(C)c3O)CC2)c(=O)c2nc(N3CCNCC3)cnc2n1CC(=O)Nc1ccc(C(F)(F)F)cc1Cl [I-89, N-(2-chloro-4-(trifluoromethyl)phenyl)-2-(6-ethyl-7-(4-(5-hydroxy-6-methylpyrimidine-4-carbonyl)piperazin-1-yl)-8-oxo-2-(piperazin-1-yl)pyrido[2,3-b]pyrazin-5(8H)-yl)acetamide] | 100 to 500 nM | > 5000 nM | 
2 | CCc1c(N2CCN(C(=O)c3ncnc(C)c3O)CC2)c(=O)c2nc(C3=CCOC3)cnc2n1CC(=O)Nc1ccc(C(F)(F)F)cc1Cl [I-90, N-(2-chloro-4-(trifluoromethyl)phenyl)-2-(2-(2,5-dihydrofuran-3-yl)-6-ethyl-7-(4-(5-hydroxy-6-methylpyrimidine-4-carbonyl)piperazin-1-yl)-8-oxopyrido[2,3-b]pyrazin-5(8H)-yl)acetamide] | 5 to 50 nM | > 5000 nM | 
3 | CCc1c(N2CCN(C(=O)c3ncnc(C)c3O)CC2)c(=O)c2nc(N3CCn4nccc43)cnc2n1CC(=O)Nc1ccc(C(F)(F)F)cc1Cl [I-91, N-(2-chloro-4-(trifluoromethyl)phenyl)-2-(2-(2,3-dihydro-1H-imidazo[1,2-b]pyrazol-1-yl)-6-ethyl-7-(4-(5-hydroxy-6-methylpyrimidine-4-carbonyl)piperazin-1-yl)-8-oxopyrido[2,3-b]pyrazin-5(8H)-yl)acetamide] | 5 to 50 nM | > 5000 nM | 
4 | CCc1c(N2CCN(C(=O)c3ncnc(C)c3O)CC2)c(=O)c2nc(N(C)[C@H]3C[C@H](OC)C3)cnc2n1CC(=O)Nc1ccc(C(F)(F)F)cc1Cl [I-92, N-(2-chloro-4-(trifluoromethyl)phenyl)-2-(6-ethyl-7-(4-(5-hydroxy-6-methylpyrimidine-4-carbonyl)piperazin-1-yl)-2-(((1r,3r)-3-methoxycyclobutyl)(methyl)amino)-8-oxopyrido[2,3-b]pyrazin-5(8H)-yl)acetamide] | 5 to 50 nM | 500 to 2000 nM | 
5 | CCc1c(N2CCN(C(=O)c3ncnc(C)c3O)CC2)c(=O)c2nc(N3CCC4CC43)cnc2n1CC(=O)Nc1ccc(C(F)(F)F)cc1Cl (stereo not shown) [I-93, 2-(2-(2-azabicyclo[3.1.0]hexan-2-yl)-6-ethyl-7-(4-(5-hydroxy-6-methylpyrimidine-4-carbonyl)piperazin-1-yl)-8-oxopyrido[2,3-b]pyrazin-5(8H)-yl)-N-(2-chloro-4-(trifluoromethyl)phenyl)acetamide] | 5 to 50 nM | 500 to 2000 nM | 
6 | CCc1c(N2CCN(C(=O)c3ncnc(C)c3O)CC2)c(=O)c2nc(-c3cn[nH]c3)cnc2n1CC(=O)Nc1ccc(C(F)(F)F)cc1Cl [I-94, N-(2-chloro-4-(trifluoromethyl)phenyl)-2-(6-ethyl-7-(4-(5-hydroxy-6-methylpyrimidine-4-carbonyl)piperazin-1-yl)-8-oxo-2-(1H-pyrazol-4-yl)pyrido[2,3-b]pyrazin-5(8H)-yl)acetamide] | 5 to 50 nM | > 5000 nM | 
7 | CCc1c(N2CCN(C(=O)c3ncnc(C)c3O)CC2)c(=O)c2nc3nc(C)sc3nc2n1CC(=O)Nc1ccc(C(F)(F)F)cc1Cl [I-95, N-(2-chloro-4-(trifluoromethyl)phenyl)-2-(6-ethyl-7-(4-(5-hydroxy-6-methylpyrimidine-4-carbonyl)piperazin-1-yl)-2-methyl-8-oxopyrido[2,3-b]thiazolo[4,5-e]pyrazin-5(8H)-yl)acetamide] | 5 to 50 nM |  | 500 to 2000 nM
8 | CCc1c(N2CCN(C(=O)c3ncnc(C)c3O)C[C@@H]2C)c(=O)c2nc(N(C)C)cnc2n1CC(=O)Nc1ccc(C(F)(F)F)cc1Cl [I-98, (S)—N-(2-chloro-4-(trifluoromethyl)phenyl)-2-(2-(dimethylamino)-6-ethyl-7-(4-(5-hydroxy-6-methylpyrimidine-4-carbonyl)-2-methylpiperazin-1-yl)-8-oxopyrido[2,3-b]pyrazin-5(8H)-yl)acetamide] | 5 to 50 nM | < 500 nM | 
